Measurements taken from US8440830B2, “Tetrahydro-fused pyridines as histone deacetylase inhibitors” (4SC AG, priority 2007, dated 2013).

test system: A549 NSCLC cells; experiment: Cellular cytotoxicity assay (Alamar Blue), A549; format: cell-based; settings: Homo sapiens, 72 h, upper end given as ≧100, read-out: IC50 (μM), cytotoxicity towards A549 NSCLC cells
Protocol: The anti-proliferative activity of the histone deacetylase inhibitory compounds as described herein, is evaluated using the following cell lines: HeLa and HeLa-KB (cervical carcinoma), H460 (non small cell lung cancer), A549 (non-small cell lung cancer), MCF7 (breast carcinoma), MCF10A (normal, non tumorigenic breast epithelial), MDA-MB468 (breast carcinoma), MDA-MB435 (breast carcinoma), MDA-MB231 (breast carcinoma), SKBR-3 (breast carcinoma), SKOV-3 (ovarial carcinoma), A-2780 (ovarial carcinoma), RKO (colon carcinoma), HCT-15 (colon carcinoma), HCT-116 (colon carcinoma), PC3 (prostate carcinoma), BPH1 (benign prostate hyperplasia), AsPC1 (pancreatic carcinoma), Ca127 (tongue carcinoma), A-431 (vulva carcinoma), Hec1A (endometrial carcinoma), Saos-2 (osteosarcoma), U87MG (glioblastoma), WM266-4 (melanoma), K562 (chronic myeloid leukemia), EOL1 (acute hypereosinophilic myeloid leukemia), CCRF-CEM and CCRF-CEM VCR1000 (acute lymphoblastic leukemia sensitive and resistant towards Vincristine). For quantification of cellular proliferation/living cells the Alamar Blue (Resazurin) cell viability assay is applied (O'Brien et al. Eur J Biochem 267, 5421-5426, 2000). In this assay Resazurin is reduced to the fluorescent resorufine by cellular dehydrogenase activity, correlating with viable, proliferating cells. The examples are dissolved as 20 mM solutions in dimethylsulfoxide (DMSO) and subsequently diluted in semi-logarithmic steps. Cell lines are seeded at respective density into 96 well flat bottom plates in a volume of 200 μl per well. 24 h after seeding 1 μl each of the compound dilutions are added into each well of the 96 well plate. Each compound dilution is tested as quadruplicates. Wells containing untreated control cells are filled with 200 μl DMEM medium containing 0.5% v:v DMSO. The cells are then incubated with the compounds for 72 h at 37° C. in a humidified atmosphere containing 5% carbon dioxide. To determine the viability of the cells, 20 μl of a Resazurin solution (Sigma; 90 mg/l) are added. After 4 h incubation at 37° C. the fluorescence is measured at an extinction of λ=544 nm and an emission of λ=590 nm. For the calculation of the cell viability the emission value from untreated cells is set as 100% viability and the emission rates of treated cells are set in relation to the values of untreated cells. Viabilities are expressed as % values. The corresponding IC50 values of the compounds for cytotoxic activity are determined from the concentration-effect curves by means of non-linear regression.

Q: For Nc1ccccc1NC(=O)c1nc2c(s1)CN(C(=O)OCc1ccccc1)CC2 [Example 188, Benzyl 2-[(2-aminophenyl)carbamoyl]-6,7-dihydro[1,3]thiazolo[5,4-c]pyridine-5(4H)-carboxylate], which IC50 is on record?
A: Its IC50 is no less than 0.2 µM.

Q: How did the IC50 turn out when Nc1ccccc1NC(=O)c1nc2c(s1)CN(C(=O)Nc1ccc(Oc3ccccc3)cc1)CC2 [Example 6, N^2-(2-aminophenyl)-N5-(4-phenoxyphenyl)-6,7-dihydro[1,3]thiazolo[5,4-c]pyridine-2,5(4H)-dicarboxamide] was run?
A: Its IC50 is no less than 0.2 µM.

Q: For COc1ccc(NC(=O)N2CCc3nc(C(=O)Nc4cc(-c5ccsc5)ccc4N)sc3C2)cc1 [Example 56, N^2-[2-amino-5-(3-thienyl)phenyl]-N^5-(4-methoxyphenyl)-6,7-dihydro[1,3]thiazolo[5,4-c]pyridine-2,5(4H)-dicarboxamide], which IC50 is on record?
A: Its IC50 is no less than 0.2 µM.

Q: For CC(=O)Nc1nc(C)c(S(=O)(=O)N2CCc3nc(C(=O)Nc4ccccc4N)sc3C2)s1 [Example 159, 5-[(2-acetamido-4-methyl-1,3-thiazol-5-yl)sulfonyl]-N-(2-aminophenyl)-4,5,6,7-tetrahydro[1,3]thiazolo[5,4-c]pyridine-2-carboxamide], which IC50 is on record?
A: The IC50 was no less than 0.2 µM.

Q: With COc1ccc(NC(=O)N2CCc3nc(C(=O)Nc4cc(OC)ccc4N)sc3C2)cc1 [Example 43, N^2-(2-amino-5-methoxyphenyl)-N^5-(4-methoxyphenyl)-6,7-dihydro[1,3]thiazolo[5,4-c]pyridine-2,5(4H)-dicarboxamide] as the molecule, how does the IC50 read?
A: The IC50 was no less than 0.2 µM.

Q: With Nc1ccccc1NC(=O)c1nc2c(s1)CN(C(=S)NC1CCC(c3cccnc3)CC1)CC2 (stereo not drawn) [Example 101, N-(2-aminophenyl)-5-{[(4-pyridin-3-ylcyclohexyl)amino]carbonothioyl}-4,5,6,7-tetrahydro[1,3]thiazolo[5,4-c]pyridine-2-carboxamide] as the molecule, how does the IC50 read?
A: The IC50 was no less than 0.2 µM.

Q: COc1ccc(N)c(NC(=O)c2nc3c(s2)CN(S(=O)(=O)c2ccc(C)cc2)CC3)c1 [Example 169, N-(2-amino-5-methoxyphenyl)-5-[(4-methylphenyl)sulfonyl]-4,5,6,7-tetrahydro[1,3]thiazolo[5,4-c]pyridine-2-carboxamide] was tested. Which IC50 did it give?
A: The IC50 was no less than 0.2 µM.

Q: With CN(C)c1ccc(NC(=S)N2CCc3nc(C(=O)Nc4ccccc4N)sc3C2)cc1 [Example 99, N-(2-aminophenyl)-5-({[4-(dimethylamino)phenyl]amino}carbonothioyl)-4,5,6,7-tetrahydro[1,3]thiazolo[5,4-c]pyridine-2-carboxamide] as the molecule, how does the IC50 read?
A: The IC50 was no less than 0.2 µM.

Q: With COc1ccc(NC(=O)N2CCc3nc(C(=O)Nc4cc(-c5cccs5)ccc4N)sc3C2)cc1 [Example 54, N^2-[2-amino-5-(2-thienyl)phenyl]-N^5-(4-methoxyphenyl)-6,7-dihydro[1,3]thiazolo[5,4-c]pyridine-2,5(4H)-dicarboxamide] as the molecule, how does the IC50 read?
A: The IC50 was no less than 0.2 µM.

Q: For COc1ccc(NC(=N)N2CCc3nc(C(=O)Nc4ccccc4N)sc3C2)cc1 [Example 111, N-(2-aminophenyl)-5-{imino[(4-methoxyphenyl)amino]methyl}-4,5,6,7-tetrahydro[1,3]thiazolo[5,4-c]pyridine-2-carboxamide], which IC50 is on record?
A: The IC50 was no less than 0.2 µM.

Q: With COc1ccc(N)c(NC(=O)c2nc3c(s2)CN(C(=C[N+](=O)[O-])Nc2ccc(C(C)C)cc2)CC3)c1 [Example 143, N-(2-amino-5-methoxyphenyl)-5-{1-[(4-isopropylphenyl)amino]-2-nitrovinyl}-4,5,6,7-tetrahydro[1,3]thiazolo[5,4-c]pyridine-2-carboxamide] as the molecule, how does the IC50 read?
A: The IC50 was no less than 0.2 µM.

Q: Which IC50 does the source give for Nc1ccccc1NC(=O)c1nc2c(s1)CN(C(=O)NC1CCNCC1)CC2 [Example 42, N^2-(2-aminophenyl)-N^5-piperidin-4-yl-6,7-dihydro[1,3]thiazolo[5,4-c]pyridine-2,5(4H)-dicarboxamide] here?
A: Its IC50 is no less than 0.2 µM.

Q: For Nc1ccccc1NC(=O)c1nc2c(s1)CN(C(=O)c1cnc3ccccc3c1)CC2 [Example 94, N-(2-aminophenyl)-5-(quinolin-3-ylcarbonyl)-4,5,6,7-tetrahydro[1,3]thiazolo[5,4-c]pyridine-2-carboxamide], which IC50 is on record?
A: The IC50 was no less than 0.2 µM.

Q: COc1ccc(C(=O)N2CCc3nc(C(=O)Nc4ccccc4N)sc3C2)cc1 [Example 93, N-(2-aminophenyl)-5-(4-methoxybenzoyl)-4,5,6,7-tetrahydro[1,3]thiazolo[5,4-c]pyridine-2-carboxamide] was tested. Which IC50 did it give?
A: Its IC50 is no less than 0.2 µM.

Q: Which IC50 does the source give for COc1ccc(N)c(NC(=O)c2nc3c(s2)CN(C(=O)C(=O)Nc2ccc(OC)c(OC)c2)CC3)c1 [Example 82, N-(2-amino-5-methoxyphenyl)-5-{[(3,4-dimethoxyphenyl)amino](oxo)acetyl}-4,5,6,7-tetrahydro[1,3]thiazolo[5,4-c]pyridine-2-carboxamide] here?
A: Its IC50 is no less than 0.2 µM.

Q: Which IC50 does the source give for Nc1ccccc1NC(=O)c1nc2c(s1)CN(C(=O)Nc1ccc(OC(F)F)cc1)CC2 [Example 11, N^2-(2-aminophenyl)-N5-[4-(difluoromethoxy)phenyl]-6,7-dihydro[1,3]thiazolo[5,4-c]pyridine-2,5(4H)-dicarboxamide] here?
A: The IC50 was no less than 0.2 µM.

Q: With Nc1ccccc1NC(=O)c1nc2c(s1)CN(C(=O)Nc1ccc(N3CCC3)nc1)CC2 [Example 35, N^2-(2-aminophenyl)-N^5-(6-azetidin-1-ylpyridin-3-yl)-6,7-dihydro[1,3]thiazolo[5,4-c]pyridine-2,5(4H)-dicarboxamide] as the molecule, how does the IC50 read?
A: Its IC50 is no less than 0.2 µM.

Q: Which IC50 does the source give for CC(C)c1ccc(N)c(NC(=O)c2nc3c(s2)CN(C(=C[N+](=O)[O-])Nc2ccc(N(C)C)cc2)CC3)c1 [Example 147, N-(2-amino-5-isopropylphenyl)-5-[1-{[4-(dimethylamino)phenyl]amino}-2-nitrovinyl]-4,5,6,7-tetrahydro[1,3]thiazolo[5,4-c]pyridine-2-carboxamide] here?
A: Its IC50 is no less than 0.2 µM.

Q: With COc1ccc(N)c(NC(=O)c2nc3c(s2)CN(C(=C[N+](=O)[O-])Nc2ccc(F)cc2)CC3)c1 [Example 149, N-(2-amino-5-methoxyphenyl)-5-{1-[(4-fluorophenyl)amino]-2-nitrovinyl}-4,5,6,7-tetrahydro[1,3]thiazolo[5,4-c]pyridine-2-carboxamide] as the molecule, how does the IC50 read?
A: Its IC50 is no less than 0.2 µM.

Q: CN(C)c1ccc(NC(=O)C(=O)N2CCc3nc(C(=O)Nc4ccccc4N)sc3C2)cn1 [Example 71, N-(2-aminophenyl)-5-[{[6-(dimethylamino)pyridin-3-yl]amino}(oxo)acetyl]-4,5,6,7-tetrahydro[1,3]thiazolo[5,4-c]pyridine-2-carboxamide] was tested. Which IC50 did it give?
A: The IC50 was no less than 0.2 µM.

Q: Which IC50 does the source give for CC(C)S(=O)(=O)N1CCc2nc(C(=O)Nc3ccccc3N)sc2C1 [Example 164, N-(2-aminophenyl)-5-(isopropylsulfonyl)-4,5,6,7-tetrahydro[1,3]thiazolo[5,4-c]pyridine-2-carboxamide] here?
A: The IC50 was no less than 0.2 µM.

Q: For CN(C)c1cccc(N(C)C(=O)N2CCc3nc(C(=O)Nc4ccccc4N)sc3C2)c1 [Example 23, N^2-(2-aminophenyl)-N^5-[3-(dimethylamino)phenyl]-N^5-methyl-6,7-dihydro-[1,3]-thiazolo[5,4-c]pyridine-2,5(4H)-dicarboxamide], which IC50 is on record?
A: The IC50 was no less than 0.2 µM.

Q: Which IC50 does the source give for COc1ccc(NC(=O)C(=O)N2CCc3nc(C(=O)Nc4cc(OC)ccc4N)sc3C2)cc1 [Example 78, N-(2-amino-5-methoxyphenyl)-5-{[(4-methoxyphenyl)amino](oxo)acetyl}-4,5,6,7-tetrahydro[1,3]thiazolo[5,4-c]pyridine-2-carboxamide] here?
A: Its IC50 is no less than 0.2 µM.

Q: COc1ccc(N)c(NC(=O)c2nc3c(s2)CN(C(=O)Nc2ccc(N(C)C)cc2)CC3)c1 [Example 47, N^2-(2-amino-5-methoxyphenyl)-N^5-[4-(dimethylamino)phenyl]-6,7-dihydro-[1,3]thiazolo[5,4-c]pyridine-2,5(4H)-dicarboxamide] was tested. Which IC50 did it give?
A: Its IC50 is no less than 0.2 µM.

Q: Which IC50 does the source give for COc1ccc(N)c(NC(=O)c2nc3c(s2)CN(C(=O)Nc2cccc4cnccc24)CC3)c1 [Example 46, N^2-(2-amino-5-methoxyphenyl)-N^5-isoquinolin-5-yl-6,7-dihydro[1,3]thiazolo[5,4-c]pyridine-2,5(4H)-dicarboxamide] here?
A: Its IC50 is no less than 0.2 µM.

Q: For CC(C)c1ccc(NC(=C[N+](=O)[O-])N2CCc3nc(C(=O)Nc4cc(C(C)C)ccc4N)sc3C2)cc1 [Example 148, N-(2-amino-5-isopropylphenyl)-5-{1-[(4-isopropylphenyl)amino]-2-nitrovinyl}-4,5,6,7-tetrahydro[1,3]thiazolo[5,4-c]pyridine-2-carboxamide], which IC50 is on record?
A: Its IC50 is no less than 0.2 µM.

Q: For CN(C)c1ccc(NC(=C[N+](=O)[O-])N2CCc3nc(C(=O)Nc4ccccc4N)sc3C2)cc1 [Example 140, N-(2-aminophenyl)-5-[1-{[4-(dimethylamino)phenyl]amino}-2-nitrovinyl]-4,5,6,7-tetrahydro[1,3]thiazolo[5,4-c]pyridine-2-carboxamide], which IC50 is on record?
A: The IC50 was no less than 0.2 µM.
